The record followed here is patent US8580794B2 (AbbVie Inc., priority 2009, dated 2013).

The assay has as its target GST-Bc1-2 (Homo sapiens, UniProt P10415). Briefly: Time Resolved-Fluorescence Resonance Energy Transfer (TR-FRET) Bcl-2 binding assay with F-Bak peptide probe. The note with it: GST-Bcl-2 1 nM, F-Bak probe 100 nM, Tb-anti-GST 1 nM; '<' = below limit of detection; read-out: TR-FRET Bcl-2 Binding Ki. (In general: Time-resolved FRET reads energy transfer from a long-lived donor to a nearby acceptor.)

GST-Bc1-2, sequence (P10415 whole entry): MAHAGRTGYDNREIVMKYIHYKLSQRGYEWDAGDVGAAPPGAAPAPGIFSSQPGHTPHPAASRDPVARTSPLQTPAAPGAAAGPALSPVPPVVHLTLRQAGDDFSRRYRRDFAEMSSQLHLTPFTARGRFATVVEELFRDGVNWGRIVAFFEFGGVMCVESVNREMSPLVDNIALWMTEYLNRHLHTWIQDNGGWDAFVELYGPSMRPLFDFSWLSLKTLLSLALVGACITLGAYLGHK

In general, Ki refers to the equilibrium dissociation constant of an inhibitor or competing ligand from its target. In the case of `CC1(C)CCC(CN2CCN(c3ccc(C(=O)NS(=O)(=O)c4ccc(NCCCNC5CC5)c([N+](=O)[O-])c4)c(Oc4cnc5[nH]ccc5c4)c3)CC2)=C(c2ccc(Cl)cc2)C1` [Example 291, 4-(4-{[2-(4-chlorophenyl)-4,4-dimethylcyclohex-1-en-1-yl]methyl}piperazin-1-yl)-N-[(4-{[3-(cyclopropylamino)propyl]amino}-3-nitrophenyl)sulfonyl]-2-(1H-pyrrolo[2,3-b]pyridin-5-yloxy)benzamide], the Ki was less than 0.01 nM. Take `COCCOc1ncc(S(=O)(=O)NC(=O)c2ccc(N3CCN(CC4=C(c5ccc(Cl)cc5)CC(C)(C)CC4)CC3)cc2Oc2cnc3[nH]ccc3c2)cc1Cl` [Example 292, N-{[5-chloro-6-(2-methoxyethoxy)pyridin-3-yl]sulfonyl}-4-(4-{[2-(4-chlorophenyl)-4,4-dimethylcyclohex-1-en-1-yl]methyl}piperazin-1-yl)-2-(1H-pyrrolo[2,3-b]pyridin-5-yloxy)benzamide]: the inhibition constant Ki stood at 0.19 nM. The result for `CC1(C)CCC(CN2CCN(c3ccc(C(=O)NS(=O)(=O)c4cnc(OCC5CCOCC5)c(F)c4)c(Oc4cnc5[nH]ccc5c4)c3)CC2)=C(c2ccc(Cl)cc2)C1` [Example 293, 4-(4-{[2-(4-chlorophenyl)-4,4-dimethylcyclohex-1-en-1-yl]methyl}piperazin-1-yl)-N-{[5-fluoro-6-(tetrahydro-2H-pyran-4-ylmethoxy)pyridin-3-yl]sulfonyl}-2-(1H-pyrrolo[2,3-b]pyridin-5-yloxy)benzamide] reads 0.093 nM; that for `COCC(=O)N1CCC(COc2ccc(S(=O)(=O)NC(=O)c3ccc(N4CCN(CC5=C(c6ccc(Cl)cc6)CC(C)(C)CC5)CC4)cc3Oc3cnc4[nH]ccc4c3)cc2Cl)CC1` [Example 294, N-[(3-chloro-4-{[1-(methoxyacetyl)piperidin-4-yl]methoxy}phenyl)sulfonyl]-4-(4-{[2-(4-chlorophenyl)-4,4-dimethylcyclohex-1-en-1-yl]methyl}piperazin-1-yl)-2-(1H-pyrrolo[2,3-b]pyridin-5-yloxy)benzamide], 0.046 nM; that for `CN(C)CC(=O)N1CCC(COc2ccc(S(=O)(=O)NC(=O)c3ccc(N4CCN(CC5=C(c6ccc(Cl)cc6)CC(C)(C)CC5)CC4)cc3Oc3cnc4[nH]ccc4c3)cc2Cl)CC1` [Example 295, N-[(3-chloro-4-{[1-(N,N-dimethylglycyl)piperidin-4-yl]methoxy}phenyl)sulfonyl]-4-(4-{[2-(4-chlorophenyl)-4,4-dimethylcyclohex-1-en-1-yl]methyl}piperazin-1-yl)-2-(1H-pyrrolo[2,3-b]pyridin-5-yloxy)benzamide], less than 0.01 nM. Consider `CC1(C)CCC(CC2CCN(c3ccc(C(=O)NS(=O)(=O)c4ccc(NCC5CCOCC5)c([N+](=O)[O-])c4)c(Oc4cnc5[nH]ccc5c4)c3)CC2)C(c2ccc(Cl)cc2)C1` (stereo not shown) [Example 296, 4-(4-{[2-(4-chlorophenyl)-4,4-dimethylcyclohexyl]methyl}piperidin-1-yl)-N-({3-nitro-4-[(tetrahydro-2H-pyran-4-ylmethyl)amino]phenyl}sulfonyl)-2-(1H-pyrrolo[2,3-b]pyridin-5-yloxy)benzamide], for which the Ki was 0.512 nM. As to `CC1(C)CCC(CN2CCN(c3ccc(C(=O)NS(=O)(=O)c4cnc(OCC5CCOCC5)c(C(F)(F)F)c4)c(Oc4cnc5[nH]ccc5c4)c3)CC2)=C(c2ccc(Cl)cc2)C1` [Example 297, 4-(4-{[2-(4-chlorophenyl)-4,4-dimethylcyclohex-1-en-1-yl]methyl}piperazin-1-yl)-2-(1H-pyrrolo[2,3-b]pyridin-5-yloxy)-N-{[6-(tetrahydro-2H-pyran-4-ylmethoxy)-5-(trifluoromethyl)pyridin-3-yl]sulfonyl}benzamide], the Ki was found to be 0.174 nM. Next, `CC1(C)CCC(CN2CCN(c3ccc(C(=O)NS(=O)(=O)c4cnc(OC[C@H]5CC[C@H](O)CC5)c(Cl)c4)c(Oc4cnc5[nH]ccc5c4)c3)CC2)=C(c2ccc(Cl)cc2)C1` [Example 298, N-({5-chloro-6-[(trans-4-hydroxycyclohexyl)methoxy]pyridin-3-yl}sulfonyl)-4-(4-{[2-(4-chlorophenyl)-4,4-dimethylcyclohex-1-en-1-yl]methyl}piperazin-1-yl)-2-(1H-pyrrolo[2,3-b]pyridin-5-yloxy)benzamide]: less than 0.01 nM; `CC1(C)CCC(CN2CCN(c3ccc(C(=O)NS(=O)(=O)c4ccc(OCC5(F)CCOCC5)c(C#N)c4)c(Oc4cnc5[nH]ccc5c4)c3)CC2)=C(c2ccc(Cl)cc2)C1` [Example 299, 4-(4-{[2-(4-chlorophenyl)-4,4-dimethylcyclohex-1-en-1-yl]methyl}piperazin-1-yl)-N-({3-cyano-4-[(4-fluorotetrahydro-2H-pyran-4-yl)methoxy]phenyl}sulfonyl)-2-(1H-pyrrolo[2,3-b]pyridin-5-yloxy)benzamide]: 0.039 nM; `CC1(C)CCC(CC2CCN(c3ccc(C(=O)NS(=O)(=O)c4cnc(OCC5(O)CCC(F)(F)CC5)c(Cl)c4)c(Oc4cnc5[nH]ccc5c4)c3)CC2)=C(c2ccc(Cl)cc2)C1` [Example 302, N-({5-chloro-6-[(4,4-difluoro-1-hydroxycyclohexyl)methoxy]pyridin-3-yl}sulfonyl)-4-(4-{[2-(4-chlorophenyl)-4,4-dimethylcyclohex-1-en-1-yl]methyl}piperidin-1-yl)-2-(1H-pyrrolo[2,3-b]pyridin-5-yloxy)benzamide]: 0.332 nM.

Regarding `CC1(C)CCC(CN2CCN(c3ccc(C(=O)NS(=O)(=O)c4ccc(OC[C@H]5CC[C@H](N6CCOCC6)CC5)c(Cl)c4)c(Oc4cnc5[nH]ccc5c4)c3)CC2)=C(c2ccc(Cl)cc2)C1` [Example 303, N-[(3-chloro-4-{[trans-4-(morpholin-4-yl)cyclohexyl]methoxy}phenyl)sulfonyl]-4-(4-{[2-(4-chlorophenyl)-4,4-dimethylcyclohex-1-en-1-yl]methyl}piperazin-1-yl)-2-(1H-pyrrolo[2,3-b]pyridin-5-yloxy)benzamide], the Ki stood at 0.044 nM. The result for `CC1(C)CCC(CN2CCN(c3ccc(C(=O)NS(=O)(=O)c4ccc(OC[C@H]5CC[C@H](O)CC5)c(Cl)c4)c(Oc4cnc5[nH]ccc5c4)c3)CC2)=C(c2ccc(Cl)cc2)C1` [Example 305, N-({3-chloro-4-[(trans-4-hydroxycyclohexyl)methoxy]phenyl}sulfonyl)-4-(4-{[2-(4-chlorophenyl)-4,4-dimethylcyclohex-1-en-1-yl]methyl}piperazin-1-yl)-2-(1H-pyrrolo[2,3-b]pyridin-5-yloxy)benzamide] reads 0.033 nM; that for `CC1(C)CCC(CN2CCN(c3ccc(C(=O)NS(=O)(=O)c4ccc(NCC5CCOCC5)c(Cl)c4)c(Oc4cnc5[nH]ccc5c4)c3)CC2)=C(c2ccc(Cl)cc2)C1` [Example 306, 4-(4-{[2-(4-chlorophenyl)-4,4-dimethylcyclohex-1-en-1-yl]methyl}piperazin-1-yl)-N-({3-chloro-4-[(tetrahydro-2H-pyran-4-ylmethyl)amino]phenyl}sulfonyl)-2-(1H-pyrrolo[2,3-b]pyridin-5-yloxy)benzamide], 2.07 nM; that for `CC1(C)CCC(CN2CCN(c3ccc(C(=O)NS(=O)(=O)c4ccc(OCC5(F)CCOCC5)c(C(F)(F)F)c4)c(Oc4cnc5[nH]ccc5c4)c3)CC2)=C(c2ccc(Cl)cc2)C1` [Example 307, 4-(4-{[2-(4-chlorophenyl)-4,4-dimethylcyclohex-1-en-1-yl]methyl}piperazin-1-yl)-N-({4-[(4-fluorotetrahydro-2H-pyran-4-yl)methoxy]-3-(trifluoromethyl)phenyl}sulfonyl)-2-(1H-pyrrolo[2,3-b]pyridin-5-yloxy)benzamide], 0.13 nM. The result for `CC1(C)CCC(CN2CCN(c3ccc(C(=O)NS(=O)(=O)c4ccc(NCCCN(CC(F)(F)F)C5CC5)c([N+](=O)[O-])c4)c(Oc4cnc5[nH]ccc5c4)c3)CC2)=C(c2ccc(Cl)cc2)C1` [Example 308, 4-(4-{[2-(4-chlorophenyl)-4,4-dimethylcyclohex-1-en-1-yl]methyl}piperazin-1-yl)-N-{[4-({3-[cyclopropyl(2,2,2-trifluoroethyl)amino]propyl}amino)-3-nitrophenyl]sulfonyl}-2-(1H-pyrrolo[2,3-b]pyridin-5-yloxy)benzamide] reads 0.141 nM; that for `CC1(C)CCC(CN2CCN(c3ccc(C(=O)NS(=O)(=O)c4ccc(OCC5CCN(C6COC6)CC5)c(Cl)c4)c(Oc4cnc5[nH]ccc5c4)c3)CC2)=C(c2ccc(Cl)cc2)C1` [Example 309, N-[(3-chloro-4-{[1-(oxetan-3-yl)piperidin-4-yl]methoxy}phenyl)sulfonyl]-4-(4-{[2-(4-chlorophenyl)-4,4-dimethylcyclohex-1-en-1-yl]methyl}piperazin-1-yl)-2-(1H-pyrrolo[2,3-b]pyridin-5-yloxy)benzamide], 0.023 nM.

Turning to `CC1(C)CCC(CN2CCN(c3ccc(C(=O)NS(=O)(=O)c4cc(F)c(OCC5(F)CCOCC5)c(F)c4)c(Oc4cnc5[nH]ccc5c4)c3)CC2)=C(c2ccc(Cl)cc2)C1` [Example 310, 4-(4-{[2-(4-chlorophenyl)-4,4-dimethylcyclohex-1-en-1-yl]methyl}piperazin-1-yl)-N-({3,5-difluoro-4-[(4-fluorotetrahydro-2H-pyran-4-yl)methoxy]phenyl}sulfonyl)-2-(1H-pyrrolo[2,3-b]pyridin-5-yloxy)benzamide], the Ki is 0.165 nM. Next, `CC1(C)CCC(CN2CCN(c3ccc(C(=O)NS(=O)(=O)c4ccc(NCCCN(C5CC5)C5COC5)c([N+](=O)[O-])c4)c(Oc4cnc5[nH]ccc5c4)c3)CC2)=C(c2ccc(Cl)cc2)C1` [Example 311, 4-(4-{[2-(4-chlorophenyl)-4,4-dimethylcyclohex-1-en-1-yl]methyl}piperazin-1-yl)-N-{[4-({3-[cyclopropyl(oxetan-3-yl)amino]propyl}amino)-3-nitrophenyl]sulfonyl}-2-(1H-pyrrolo[2,3-b]pyridin-5-yloxy)benzamide]: less than 0.01 nM; `CN1CCC[C@H]1C(=O)N1CCC(COc2ccc(S(=O)(=O)NC(=O)c3ccc(N4CCN(CC5=C(c6ccc(Cl)cc6)CC(C)(C)CC5)CC4)cc3Oc3cnc4[nH]ccc4c3)cc2Cl)CC1` [Example 312, N-[(3-chloro-4-{[1-(1-methyl-L-prolyl)piperidin-4-yl]methoxy}phenyl)sulfonyl]-4-(4-{[2-(4-chlorophenyl)-4,4-dimethylcyclohex-1-en-1-yl]methyl}piperazin-1-yl)-2-(1H-pyrrolo[2,3-b]pyridin-5-yloxy)benzamide]: less than 0.01 nM.
